{"source": "ChEMBL document CHEMBL5696442", "about": "“Discovery of type II inhibitors of TGFβ-activated kinase 1 (TAK1) and mitogen-activated protein kinase kinase kinase kinase 2 (MAP4K2)” (J Med Chem, 2015)", "key": {"[1]": {"test": "Inhibition of p70S6K Lys2 labeling site in human Huh-7 cell lysate at 1 uM by KiNativ Profiling analysis relative to control", "details": "condition cancer"}, "[2]": {"biological_target": "Calcium/calmodulin-dependent protein kinase type II subunit gamma (Homo sapiens) (UniProt Q13555)", "sequence (Q13555 whole entry)": "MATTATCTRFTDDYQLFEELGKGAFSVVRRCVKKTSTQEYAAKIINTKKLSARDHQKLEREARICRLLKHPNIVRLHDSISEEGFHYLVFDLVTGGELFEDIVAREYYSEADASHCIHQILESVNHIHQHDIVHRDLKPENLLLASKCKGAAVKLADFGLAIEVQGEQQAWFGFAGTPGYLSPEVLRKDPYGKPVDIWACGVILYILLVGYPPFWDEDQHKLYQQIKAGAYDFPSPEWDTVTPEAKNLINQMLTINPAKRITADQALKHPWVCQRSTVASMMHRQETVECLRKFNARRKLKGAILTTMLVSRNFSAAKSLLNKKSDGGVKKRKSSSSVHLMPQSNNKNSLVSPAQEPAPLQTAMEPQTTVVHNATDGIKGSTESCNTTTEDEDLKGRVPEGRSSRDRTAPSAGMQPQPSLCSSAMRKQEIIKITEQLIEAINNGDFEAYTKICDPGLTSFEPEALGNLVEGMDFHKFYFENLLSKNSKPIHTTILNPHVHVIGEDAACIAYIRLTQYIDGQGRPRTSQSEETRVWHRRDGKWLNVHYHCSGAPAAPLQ", "test": "Inhibition of CAMK2G (unknown origin) at 10 uM by Ambit Kinomescan binding assay"}, "[3]": {"biological_target": "MAP kinase-interacting serine/threonine-protein kinase 2 (Homo sapiens) (UniProt Q9HBH9)", "test": "Inhibition of MKNK2 (unknown origin) at 10 uM by Ambit Kinomescan binding assay relative to control"}, "[4]": {"biological_target": "T1, Serine/threonine-protein kinase Chk1 (Homo sapiens) (UniProt O14757)", "T1 sequence (whole entry)": "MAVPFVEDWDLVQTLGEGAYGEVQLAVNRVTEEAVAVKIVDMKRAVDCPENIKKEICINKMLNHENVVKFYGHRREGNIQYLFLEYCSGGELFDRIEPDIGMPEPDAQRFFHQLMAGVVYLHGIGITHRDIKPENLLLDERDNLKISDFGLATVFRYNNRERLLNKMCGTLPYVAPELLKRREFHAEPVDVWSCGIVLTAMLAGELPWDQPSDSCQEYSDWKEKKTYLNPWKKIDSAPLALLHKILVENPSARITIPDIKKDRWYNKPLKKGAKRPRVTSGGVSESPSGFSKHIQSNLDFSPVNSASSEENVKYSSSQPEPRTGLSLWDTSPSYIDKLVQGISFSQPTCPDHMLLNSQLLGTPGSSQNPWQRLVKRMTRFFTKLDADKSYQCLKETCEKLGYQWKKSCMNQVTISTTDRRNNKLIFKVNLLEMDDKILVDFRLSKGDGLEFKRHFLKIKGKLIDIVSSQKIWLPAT", "test": "Inhibition of CHK1 Lys2 labeling site harbouring DIKPENLLLDERDNLK in human A-375 cells at 0.5 uM by KiNativ Profiling analysis relative to control", "format": "cell-based"}, "[5]": {"biological_target": "T2, Serine/threonine-protein kinase Nek1 (Homo sapiens) (UniProt Q96PY6)", "T2 sequence (whole entry)": "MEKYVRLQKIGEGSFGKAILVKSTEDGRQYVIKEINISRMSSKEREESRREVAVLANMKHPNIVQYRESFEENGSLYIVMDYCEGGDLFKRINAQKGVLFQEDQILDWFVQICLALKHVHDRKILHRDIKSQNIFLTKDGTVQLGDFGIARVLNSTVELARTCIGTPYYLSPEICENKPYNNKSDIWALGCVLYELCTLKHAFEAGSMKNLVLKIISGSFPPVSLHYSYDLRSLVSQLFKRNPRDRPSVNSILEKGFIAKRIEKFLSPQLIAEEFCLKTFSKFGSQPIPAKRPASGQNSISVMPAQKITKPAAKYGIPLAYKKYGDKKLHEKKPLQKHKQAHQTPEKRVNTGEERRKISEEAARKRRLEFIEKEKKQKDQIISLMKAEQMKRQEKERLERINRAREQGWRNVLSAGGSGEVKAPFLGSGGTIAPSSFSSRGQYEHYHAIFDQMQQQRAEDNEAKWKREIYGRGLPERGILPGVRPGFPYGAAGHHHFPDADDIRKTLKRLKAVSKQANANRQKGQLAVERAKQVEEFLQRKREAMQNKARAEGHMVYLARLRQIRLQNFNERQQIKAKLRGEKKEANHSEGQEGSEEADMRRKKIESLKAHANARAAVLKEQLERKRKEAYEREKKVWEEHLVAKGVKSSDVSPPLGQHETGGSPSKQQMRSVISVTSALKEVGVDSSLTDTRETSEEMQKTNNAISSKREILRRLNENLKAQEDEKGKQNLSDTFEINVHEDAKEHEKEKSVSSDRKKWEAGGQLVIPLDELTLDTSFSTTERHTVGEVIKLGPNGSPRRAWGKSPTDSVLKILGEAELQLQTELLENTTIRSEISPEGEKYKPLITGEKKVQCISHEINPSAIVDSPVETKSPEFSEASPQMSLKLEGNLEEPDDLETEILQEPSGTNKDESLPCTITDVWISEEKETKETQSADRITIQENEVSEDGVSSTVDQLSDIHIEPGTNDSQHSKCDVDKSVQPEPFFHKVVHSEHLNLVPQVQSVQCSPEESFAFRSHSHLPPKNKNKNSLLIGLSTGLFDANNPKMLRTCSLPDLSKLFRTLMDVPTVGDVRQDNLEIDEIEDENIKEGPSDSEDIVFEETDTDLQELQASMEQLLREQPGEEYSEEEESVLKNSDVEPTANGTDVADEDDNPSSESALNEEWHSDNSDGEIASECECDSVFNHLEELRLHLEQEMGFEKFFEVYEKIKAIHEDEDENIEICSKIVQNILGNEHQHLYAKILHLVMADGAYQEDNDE", "test": "Inhibition of NEK1 K2 labeling site in human Huh-7 cells at 10 uM by KiNativ Profiling analysis relative to control", "format": "cell-based"}, "[6]": {"biological_target": "RPS6KA1/RPS6KA2/RPS6KA3 (Homo sapiens) (UniProt P51812+Q15349+Q15418)", "sequence (P51812 whole entry, looked up)": "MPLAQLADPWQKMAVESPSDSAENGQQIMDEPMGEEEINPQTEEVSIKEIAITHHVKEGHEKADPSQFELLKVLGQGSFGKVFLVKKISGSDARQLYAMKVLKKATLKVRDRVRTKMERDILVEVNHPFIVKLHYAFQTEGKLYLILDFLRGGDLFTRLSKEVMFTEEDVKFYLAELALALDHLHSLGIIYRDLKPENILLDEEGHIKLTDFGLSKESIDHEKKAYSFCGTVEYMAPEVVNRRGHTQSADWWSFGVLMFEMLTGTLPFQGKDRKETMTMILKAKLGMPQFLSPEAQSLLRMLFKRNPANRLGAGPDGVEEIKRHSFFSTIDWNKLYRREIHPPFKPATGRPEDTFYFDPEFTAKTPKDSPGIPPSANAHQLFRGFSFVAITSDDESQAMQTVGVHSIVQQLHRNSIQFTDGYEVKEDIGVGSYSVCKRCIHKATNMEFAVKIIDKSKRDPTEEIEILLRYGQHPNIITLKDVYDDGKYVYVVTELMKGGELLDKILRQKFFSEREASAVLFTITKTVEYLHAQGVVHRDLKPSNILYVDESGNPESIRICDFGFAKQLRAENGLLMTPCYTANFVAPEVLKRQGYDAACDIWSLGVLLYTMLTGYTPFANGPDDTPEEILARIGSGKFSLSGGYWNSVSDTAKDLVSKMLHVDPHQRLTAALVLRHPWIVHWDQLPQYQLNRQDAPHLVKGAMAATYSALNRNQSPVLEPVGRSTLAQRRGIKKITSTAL", "sequence (Q15349 whole entry, looked up)": "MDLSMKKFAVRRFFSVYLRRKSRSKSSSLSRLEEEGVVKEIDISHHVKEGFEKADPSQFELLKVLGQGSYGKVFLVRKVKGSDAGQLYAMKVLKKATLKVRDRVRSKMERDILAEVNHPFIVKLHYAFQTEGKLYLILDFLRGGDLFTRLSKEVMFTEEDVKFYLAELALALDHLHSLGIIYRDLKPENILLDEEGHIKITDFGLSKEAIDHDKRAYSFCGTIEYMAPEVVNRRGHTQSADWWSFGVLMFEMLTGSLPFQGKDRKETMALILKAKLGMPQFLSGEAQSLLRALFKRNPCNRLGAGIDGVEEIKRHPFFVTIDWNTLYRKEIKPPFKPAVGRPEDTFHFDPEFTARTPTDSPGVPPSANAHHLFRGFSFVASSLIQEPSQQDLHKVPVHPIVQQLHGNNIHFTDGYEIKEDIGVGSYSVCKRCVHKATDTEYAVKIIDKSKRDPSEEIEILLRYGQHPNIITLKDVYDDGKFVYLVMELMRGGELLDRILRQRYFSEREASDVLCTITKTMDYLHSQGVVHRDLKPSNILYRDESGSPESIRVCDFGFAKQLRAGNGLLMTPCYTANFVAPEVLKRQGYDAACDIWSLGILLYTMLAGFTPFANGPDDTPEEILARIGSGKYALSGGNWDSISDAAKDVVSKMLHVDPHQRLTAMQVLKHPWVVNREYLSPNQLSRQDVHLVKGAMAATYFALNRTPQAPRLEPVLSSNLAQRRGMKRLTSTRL", "sequence (Q15418 whole entry, looked up)": "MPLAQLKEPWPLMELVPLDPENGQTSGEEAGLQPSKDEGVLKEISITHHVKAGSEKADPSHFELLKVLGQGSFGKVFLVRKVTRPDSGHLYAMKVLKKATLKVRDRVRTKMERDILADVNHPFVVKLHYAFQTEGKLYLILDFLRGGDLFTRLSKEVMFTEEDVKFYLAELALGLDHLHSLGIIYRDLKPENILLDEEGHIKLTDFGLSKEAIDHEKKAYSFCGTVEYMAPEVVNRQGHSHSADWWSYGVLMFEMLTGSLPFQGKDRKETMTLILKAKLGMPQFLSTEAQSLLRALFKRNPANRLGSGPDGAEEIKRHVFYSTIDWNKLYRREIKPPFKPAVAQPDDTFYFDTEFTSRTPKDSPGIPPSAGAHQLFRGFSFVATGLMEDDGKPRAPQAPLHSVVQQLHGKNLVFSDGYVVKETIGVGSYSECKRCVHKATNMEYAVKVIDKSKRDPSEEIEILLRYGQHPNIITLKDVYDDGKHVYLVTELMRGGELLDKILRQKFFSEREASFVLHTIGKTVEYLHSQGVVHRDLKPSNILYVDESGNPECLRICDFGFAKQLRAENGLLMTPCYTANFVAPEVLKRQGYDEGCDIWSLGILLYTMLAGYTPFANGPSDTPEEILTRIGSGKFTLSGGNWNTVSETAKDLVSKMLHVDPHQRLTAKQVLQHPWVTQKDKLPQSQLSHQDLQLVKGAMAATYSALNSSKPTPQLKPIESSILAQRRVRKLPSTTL", "test": "Inhibition of RSK1/2/3 Domain 1 K2 labeling site harbouring DLKPENILLDEEGHIK in human Huh-7 cells at 10 uM by KiNativ Profiling analysis relative to control", "format": "cell-based"}, "[7]": {"biological_target": "Tyrosine-protein kinase Fes/Fps (Homo sapiens, UniProt P07332)", "sequence (P07332 whole entry)": "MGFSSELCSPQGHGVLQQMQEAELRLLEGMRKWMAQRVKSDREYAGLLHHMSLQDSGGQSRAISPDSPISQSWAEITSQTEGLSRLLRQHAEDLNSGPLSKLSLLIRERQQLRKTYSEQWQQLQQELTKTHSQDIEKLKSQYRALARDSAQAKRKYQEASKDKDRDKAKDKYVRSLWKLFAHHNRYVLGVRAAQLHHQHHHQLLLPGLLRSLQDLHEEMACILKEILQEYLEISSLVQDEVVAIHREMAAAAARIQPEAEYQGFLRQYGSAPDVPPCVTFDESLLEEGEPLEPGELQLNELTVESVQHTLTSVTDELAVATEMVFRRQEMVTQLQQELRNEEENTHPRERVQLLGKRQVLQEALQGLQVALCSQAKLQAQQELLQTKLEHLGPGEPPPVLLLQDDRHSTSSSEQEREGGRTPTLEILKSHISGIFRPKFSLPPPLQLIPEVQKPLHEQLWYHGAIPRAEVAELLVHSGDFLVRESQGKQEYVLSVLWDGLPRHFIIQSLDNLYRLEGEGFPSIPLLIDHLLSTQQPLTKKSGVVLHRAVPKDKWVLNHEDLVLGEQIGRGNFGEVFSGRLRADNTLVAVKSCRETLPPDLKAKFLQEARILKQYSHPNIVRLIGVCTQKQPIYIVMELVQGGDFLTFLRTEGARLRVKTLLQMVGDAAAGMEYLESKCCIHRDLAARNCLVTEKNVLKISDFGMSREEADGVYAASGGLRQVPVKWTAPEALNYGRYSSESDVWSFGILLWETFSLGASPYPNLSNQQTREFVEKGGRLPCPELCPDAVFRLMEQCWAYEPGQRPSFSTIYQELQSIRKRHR", "test": "Inhibition of FES K1 labeling site in human Huh-7 cells at 1 uM by KiNativ Profiling analysis relative to control", "format": "cell-based"}, "[8]": {"biological_target": "T3, Dual specificity mitogen-activated protein kinase kinase 4 (Homo sapiens) (UniProt P45985)", "T3 sequence (whole entry)": "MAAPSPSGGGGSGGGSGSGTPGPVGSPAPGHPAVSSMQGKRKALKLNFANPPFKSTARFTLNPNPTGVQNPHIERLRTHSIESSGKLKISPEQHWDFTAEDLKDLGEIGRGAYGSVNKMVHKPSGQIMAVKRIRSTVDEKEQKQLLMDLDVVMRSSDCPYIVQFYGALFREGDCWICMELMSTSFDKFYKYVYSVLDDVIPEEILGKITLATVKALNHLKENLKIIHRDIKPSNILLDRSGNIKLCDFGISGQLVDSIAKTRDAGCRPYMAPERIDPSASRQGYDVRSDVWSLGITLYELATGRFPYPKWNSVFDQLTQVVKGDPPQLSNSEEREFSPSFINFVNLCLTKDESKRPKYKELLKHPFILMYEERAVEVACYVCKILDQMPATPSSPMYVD", "test": "Inhibition of MAP2K4 K2 labeling site harbouring IIHRDIKPSNILLDR in human Huh-7 cells at 1 uM by KiNativ Profiling analysis relative to control", "format": "cell-based"}, "[9]": {"biological_target": "Tyrosine-protein kinase Srms (Homo sapiens) (UniProt Q9H3Y6)", "sequence (Q9H3Y6 whole entry)": "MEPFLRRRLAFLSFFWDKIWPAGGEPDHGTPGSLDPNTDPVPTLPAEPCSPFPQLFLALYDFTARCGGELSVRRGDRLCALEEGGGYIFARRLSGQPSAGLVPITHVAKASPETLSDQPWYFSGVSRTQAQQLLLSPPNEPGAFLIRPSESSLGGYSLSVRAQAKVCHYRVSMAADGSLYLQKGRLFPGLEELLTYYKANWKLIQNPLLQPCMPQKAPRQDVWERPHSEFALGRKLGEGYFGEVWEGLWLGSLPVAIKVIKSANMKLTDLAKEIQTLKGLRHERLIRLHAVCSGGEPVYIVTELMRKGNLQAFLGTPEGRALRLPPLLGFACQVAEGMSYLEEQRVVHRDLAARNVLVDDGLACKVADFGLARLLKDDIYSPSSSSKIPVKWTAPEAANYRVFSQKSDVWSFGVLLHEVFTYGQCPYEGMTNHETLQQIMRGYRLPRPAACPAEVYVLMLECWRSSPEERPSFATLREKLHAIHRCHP", "test": "Inhibition of SRMS (unknown origin) at 1 uM by Ambit Kinomescan binding assay relative to control"}, "[10]": {"biological_target": "Dual specificity testis-specific protein kinase 1 (Homo sapiens) (UniProt Q15569)", "sequence (Q15569 whole entry, looked up)": "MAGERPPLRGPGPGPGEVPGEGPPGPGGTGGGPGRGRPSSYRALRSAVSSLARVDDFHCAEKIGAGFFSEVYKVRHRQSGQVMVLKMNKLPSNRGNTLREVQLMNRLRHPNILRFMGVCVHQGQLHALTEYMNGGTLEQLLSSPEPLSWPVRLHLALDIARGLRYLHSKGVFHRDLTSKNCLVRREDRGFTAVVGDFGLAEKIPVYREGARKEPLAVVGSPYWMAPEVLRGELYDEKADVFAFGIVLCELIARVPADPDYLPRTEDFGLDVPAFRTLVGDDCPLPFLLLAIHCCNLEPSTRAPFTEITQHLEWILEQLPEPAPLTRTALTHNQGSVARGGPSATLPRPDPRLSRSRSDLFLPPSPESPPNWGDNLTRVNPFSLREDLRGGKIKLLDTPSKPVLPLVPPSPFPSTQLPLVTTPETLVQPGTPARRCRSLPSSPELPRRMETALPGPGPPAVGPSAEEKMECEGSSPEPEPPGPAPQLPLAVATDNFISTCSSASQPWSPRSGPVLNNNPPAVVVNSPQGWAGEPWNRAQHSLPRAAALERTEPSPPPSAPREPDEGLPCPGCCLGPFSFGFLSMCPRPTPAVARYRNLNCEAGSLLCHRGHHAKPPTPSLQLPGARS", "test": "Inhibition of TESK1 (unknown origin) at 1 uM by Ambit Kinomescan binding assay relative to control"}, "[11]": {"biological_target": "Cyclin-dependent kinase 1 (Homo sapiens) (UniProt P06493)", "sequence (P06493 whole entry, looked up)": "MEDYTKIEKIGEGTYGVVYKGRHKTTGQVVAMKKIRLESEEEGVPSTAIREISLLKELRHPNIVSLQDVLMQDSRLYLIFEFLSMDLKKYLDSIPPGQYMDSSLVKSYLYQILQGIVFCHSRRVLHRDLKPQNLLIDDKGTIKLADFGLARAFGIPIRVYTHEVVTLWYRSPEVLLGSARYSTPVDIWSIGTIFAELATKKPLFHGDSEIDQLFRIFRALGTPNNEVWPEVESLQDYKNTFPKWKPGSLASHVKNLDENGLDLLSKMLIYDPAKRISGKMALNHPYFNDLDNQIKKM", "test": "Inhibition of CDC2 Lys2 labeling site harbouring VLHRDLKPQNLLIDDKGTIK in human A-375 cells at 0.5 uM by KiNativ Profiling analysis relative to control", "format": "cell-based"}}, "note": "Calls of active or inactive are those of the source. The rule behind the calls is not given here.", "data": [{"smiles": "CNc1cc(Oc2cc(C(=O)Nc3cc(N4CCN(C)CC4)cc(C(F)(F)F)c3)ccc2C)ncn1", "values": [{"measurement": "inhibition at 1 µM", "setting": "[1]", "value": 4.9, "unit": "%"}]}, {"smiles": "CCN1CCN(Cc2ccc(NC(=O)c3ccc(C)c(Oc4ccnc5[nH]ccc45)c3)cc2C(F)(F)F)CC1", "values": [{"measurement": "inhibition", "setting": "[2]", "value": "inactive"}, {"measurement": "inhibition", "setting": "[3]", "value": "inactive"}, {"measurement": "inhibition", "setting": "[4]", "value": 41.1, "unit": "%"}, {"measurement": "inhibition", "setting": "[5]", "value": -4.4, "unit": "%"}, {"measurement": "inhibition", "setting": "[6]", "value": 8.7, "unit": "%"}, {"measurement": "inhibition", "setting": "[7]", "value": -4.5, "unit": "%"}, {"measurement": "inhibition", "setting": "[8]", "value": -0.9, "unit": "%"}]}, {"smiles": "CCN1CCN(Cc2ccc(NC(=O)c3ccc(C)c(/C=C/c4cnc5[nH]ccc5c4OC)c3)cc2C(F)(F)F)CC1", "values": [{"measurement": "inhibition", "setting": "[9]", "value": 34, "unit": "%"}, {"measurement": "inhibition", "setting": "[10]", "value": 100, "unit": "%"}, {"measurement": "inhibition", "setting": "[11]", "value": 5.8, "unit": "%"}]}]}
